Measurements taken from PubChem BioAssay AID977613 (Broad Institute, 2014).
Active and inactive are the calls of the source. The rule behind the calls is not given here.

Test system: Broad 7084-01 inhibitor HTS, set 2
Experiment: inhibitors in Broad screen 7084-01, set 2 (AID 977613);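 note: host cells are infected with parasite promastigotes that become internalized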

| Compound | active concentration |
| --- | --- |
| CN1C(=O)c2cc(NC(=O)c3cccc(F)c3)ccc2OC[C@@H]2O[C@H](CC(=O)NCC3CCCCC3)CC[C@@H]21 | > 10 µM (inactive) |
| CS(=O)(=O)N1CC2(C1)[C@@H](c1ccccc1)[C@@H](CO)N2Cc1ccccn1 | > 10 µM (inactive) |
| C/C=C/c1ccc([C@@H]2[C@H](CO)N3C(=O)CN(Cc4ccc(F)cc4)C[C@@H]23)cc1 | > 10 µM (inactive) |
| COCC#Cc1ccc([C@H]2[C@@H](CO)N3C(=O)CN(C(=O)Nc4ccccc4F)C[C@@H]23)cc1 | > 10 µM (inactive) |
| O=S(=O)(c1cccs1)N1CCCCN2[C@@H](CO)[C@@H](c3ccc(/C=C/c4ccccc4)cc3)[C@@H]2C1 | > 10 µM (inactive) |
| O=C(Nc1ccccc1)N1CC(=O)N2[C@H](C1)[C@H](c1ccc(C#CC3CCCCC3)cc1)[C@@H]2CO | > 10 µM (inactive) |
| O=S(=O)(c1ccccc1)N1C[C@@H]2[C@H](c3ccccc31)[C@H](CO)N2Cc1ccccn1 | > 10 µM (inactive) |
| O=C(C1CCOCC1)N1CC(=O)N2[C@H](C1)[C@@H](c1ccc(C#CCc3ccccc3)cc1)[C@@H]2CO | > 10 µM (inactive) |
| CN1C(=O)c2cc(NC(=O)c3ccc(F)c(F)c3)ccc2OC[C@@H]2O[C@@H](CC(=O)N[C@@H]3CCN(Cc4ccccc4)C3)CC[C@H]21 | > 10 µM (inactive) |
| CCC(=O)N1CC(=O)N2[C@H](CO)[C@@H](c3ccc(-c4ccc(C#N)cc4)cc3)[C@@H]2C1 | > 10 µM (inactive) |
| O=C(C1CCC1)N1CC2(C1)[C@H](c1ccccc1)[C@H](CO)N2C(=O)c1ccccn1 | > 10 µM (inactive) |
| O=C(c1ccccc1F)N1CC[C@H]2[C@H](CO)Nc3ccc(Br)cc3[C@H]21 | > 10 µM (inactive) |
| N#C[C@@H]1[C@H](c2ccccc2-c2ccccc2)[C@H](CO)N1C(=O)Cc1ccncc1 | > 10 µM (inactive) |
| COc1ccc(C#Cc2ccc([C@H]3[C@@H](CO)N4C(=O)CN(C(=O)c5ccc(F)cc5)C[C@H]34)cc2)cc1 | > 10 µM (inactive) |
| O=C(c1cccnc1)N1CC2(C1)[C@H](c1ccccc1)[C@@H](CO)N2Cc1ccc(Cl)cc1 | > 10 µM (inactive) |
| O=S(=O)(c1ccc(F)cc1)N1CCCCN2[C@H](C1)[C@@H](c1ccc(-c3cncnc3)cc1)[C@@H]2CO | > 10 µM (inactive) |
| OC[C@@H]1[C@@H](c2ccc(C#CC3(O)CCCC3)cc2)[C@@H]2CN(Cc3cncnc3)CCCCN12 | > 10 µM (inactive) |
| COc1cccc(C#Cc2ccc([C@H]3[C@@H](CO)N4C(=O)CN(C(=O)Cc5cccnc5)C[C@H]34)cc2)c1 | > 10 µM (inactive) |
| O=C(c1ccncc1)N1CC2(C1)[C@@H](c1ccccc1)[C@@H](CO)N2CC1CCOCC1 | > 10 µM (inactive) |
| CC(C)NC(=O)N1CC[C@@H]2[C@H]1c1cc(Br)ccc1N(C)[C@@H]2CO | > 10 µM (inactive) |
| O=C(C[C@@H]1CC[C@H]2[C@@H](COC[C@H](O)CN2Cc2cc(F)ccc2F)O1)NCc1ccc(F)cc1 | > 10 µM (inactive) |
| CCN1CC(=O)N2[C@H](CO)[C@@H](c3ccc(Br)cc3)[C@@H]2C1 | > 10 µM (inactive) |
| Cc1ccc(-c2ccccc2[C@H]2[C@@H](C#N)N(c3ncc(-c4ccccc4)s3)[C@@H]2CO)cc1 | > 10 µM (inactive) |
| COc1ccc2c3c([nH]c2c1)[C@@H](CO)N(C(=O)NC(C)C)CC31CCN(C(=O)c2cnccn2)CC1 | > 10 µM (inactive) |

| Compound | active concentration |
| --- | --- |
| CCCN1[C@@H]2c3ccc(C4=CCCCC4)c(=O)n3C[C@@H]2[C@@H](CO)[C@@H]1C(=O)NC1Cc2ccccc2C1 | > 10 µM (inactive) |
| COc1ccc(NC(=O)N2CC(=O)N3[C@H](CO)[C@H](c4ccc(Br)cc4)[C@H]3C2)cc1 | > 10 µM (inactive) |
| O=C(C[C@H]1CC[C@@H]2[C@H](COC[C@@H](O)CN2Cc2cccc(F)c2)O1)NCc1cccc(F)c1 | > 10 µM (inactive) |
| CCCC#Cc1ccc([C@@H]2[C@@H](CO)N3C(=O)CN(S(=O)(=O)c4ccccc4C)C[C@H]23)cc1 | > 10 µM (inactive) |
| O=C(C1CCOCC1)N1[C@@H](CO)[C@@H](c2ccccc2)C12CN(Cc1cccc(Cl)c1)C2 | > 10 µM (inactive) |
| O=C(C[C@@H]1CC[C@H]2[C@@H](COC[C@H](O)CN2Cc2ccc(Cl)cc2)O1)NCc1ccccc1Cl | > 10 µM (inactive) |
| OC[C@@H]1Nc2ccc(-c3ccccc3)cc2[C@H]2[C@@H]1CCN2Cc1ccccc1F | > 10 µM (inactive) |
| O=C(Cc1ccccn1)N1[C@H](CO)[C@@H]2c3ccccc3NC[C@@H]21 | > 10 µM (inactive) |
| O=C([C@@H]1[C@@H](CO)[C@@H]2Cn3c(ccc(C4=CCCCC4)c3=O)[C@H]1N2Cc1nccs1)N1CCCCC1 | > 10 µM (inactive) |
| O=C(C[C@H]1CC[C@@H]2[C@H](COC[C@@H](O)CN2S(=O)(=O)c2cccc(Cl)c2)O1)Nc1ccc(-c2ccccc2)cc1 | > 10 µM (inactive) |
| COc1ccccc1C#Cc1ccc2c(c1)[C@@H]1[C@@H](CCN1C(C)=O)[C@@H](CO)N2C | > 10 µM (inactive) |
| COc1ccc2c3c(n(C)c2c1)[C@H](CO)N(C)CC31CCN(S(=O)(=O)c2cccc(F)c2)CC1 | > 10 µM (inactive) |
| N#C[C@H]1[C@H](c2ccccc2-c2cccc(F)c2)[C@@H](CO)N1C(=O)CN1CCOCC1 | > 10 µM (inactive) |
| COc1cccc(C(=O)Nc2ccc3c(c2)C(=O)N(C)[C@H]2CC[C@H](CC(=O)NCCCN4CCOCC4)O[C@H]2CO3)c1 | > 10 µM (inactive) |
| CC(=O)N1CC[C@@H]2[C@H]1c1cc(-c3ccc(F)cc3)ccc1N[C@@H]2CO | > 10 µM (inactive) |
| CN(C)C(=O)C[C@@H]1CC[C@@H]2[C@H](COC[C@@H](O)CN2CC2CC2)O1 | > 10 µM (inactive) |
| CCCC#Cc1ccc([C@H]2[C@H](CO)N3C(=O)CN(C(=O)c4cccnc4)C[C@@H]23)cc1 | > 10 µM (inactive) |
| CN1c2ccc(Br)cc2[C@H]2[C@H](CCN2C(=O)Cc2ccccc2)[C@H]1CO | > 10 µM (inactive) |
| O=C1CNC[C@@H]2[C@H](c3ccc(C#CC4CCCCC4)cc3)[C@@H](CO)N12 | > 10 µM (inactive) |
| O=S(=O)(c1ccccc1)N1CCCCN2[C@@H](CO)[C@@H](c3ccc(C#CC4CCCC4)cc3)[C@@H]2C1 | > 10 µM (inactive) |
| O=C(C[C@@H]1CC[C@H]2[C@@H](COC[C@H](O)CN2C(=O)Nc2cc(Cl)cc(Cl)c2)O1)NCC1CCCCC1 | > 10 µM (inactive) |
| N#C[C@@H]1[C@H](c2ccccc2-c2ccc(F)cc2)[C@H](CO)N1C(=O)Cc1cccnc1 | > 10 µM (inactive) |
| COc1ccc(-c2ccc3c(c2)[C@@H]2[C@@H](CCN2C(=O)CN2CCOCC2)[C@H](CO)N3)cc1 | > 10 µM (inactive) |
| O=C(c1cnccn1)N1CC[C@@H]2[C@H](CO)Nc3ccc(-c4ccccc4F)cc3[C@@H]21 | > 10 µM (inactive) |

| Compound | active concentration |
| --- | --- |
| CC(C)NC(=O)N1CC2(C1)[C@H](c1ccccc1)[C@H](CO)N2CCC(F)(F)F | > 10 µM (inactive) |
| CN(C)C(=O)C[C@@H]1CC[C@@H]2[C@H](COC[C@H](O)CN2CC2CC2)O1 | > 10 µM (inactive) |
| O=C(C[C@H]1CC[C@H]2[C@@H](COC[C@@H](O)CN2S(=O)(=O)c2cccc(F)c2)O1)Nc1ccc(-c2ccccc2)cc1 | > 10 µM (inactive) |
| CCCC#Cc1ccc([C@H]2[C@@H](CO)N3C(=O)CN(C(=O)CN4CCOCC4)C[C@@H]23)cc1 | > 10 µM (inactive) |
| COC(=O)C[C@@H]1CC[C@@H]2[C@@H](COc3ccc(NC(=O)c4cccc(Cl)c4)cc3C(=O)N2C)O1 | > 10 µM (inactive) |
| O=C(O)[C@H]1[C@H](CO)[C@H]2Cn3c(ccc(-c4ccccc4F)c3=O)[C@@H]1N2C(=O)c1cccnc1 | > 10 µM (inactive) |
| O=C(Cc1ccncc1)N1CC(=O)N2[C@@H](CO)[C@H](c3ccc(Br)cc3)[C@@H]2C1 | > 10 µM (inactive) |
| CCCC(=O)N1CCC2(CC1)CN(Cc1ccc(Cl)cc1)[C@H](CO)c1[nH]c3cc(OC)ccc3c12 | > 10 µM (inactive) |
| Cc1cccc(S(=O)(=O)N2C[C@H](O)COC[C@@H]3O[C@H](CC(=O)Nc4ccccc4)CC[C@H]32)c1 | > 10 µM (inactive) |
| CN1C[C@@H]2[C@H](c3ccccc31)[C@@H](CO)N2C(=O)Nc1cccc(F)c1 | > 10 µM (inactive) |
| COc1ccccc1NC(=O)N1CC(=O)N2[C@H](CO)[C@H](c3ccc(-c4cccc(C)c4)cc3)[C@@H]2C1 | > 10 µM (inactive) |
| O=C(C[C@@H]1CC[C@H]2[C@@H](COC[C@H](O)CN2Cc2cccc(F)c2)O1)NCc1cccc(F)c1 | > 10 µM (inactive) |
| O=C(C[C@@H]1CC[C@@H]2[C@H](COC[C@@H](O)CN2CC2CC2)O1)NCC1CC1 | > 10 µM (inactive) |
| COCC(=O)N1[C@H](CO)[C@@H](c2ccccc2-c2ccccc2F)[C@@H]1C#N | < 10 µM |
| CCCNC(=O)N1CC(=O)N2[C@H](CO)[C@H](c3ccc(C#CCC4CCCC4)cc3)[C@@H]2C1 | > 10 µM (inactive) |
| O=C(C[C@@H]1CC[C@@H]2[C@H](COC[C@@H](O)CN2C(=O)Nc2ccc(Cl)c(Cl)c2)O1)NCc1ccc(Cl)cc1 | > 10 µM (inactive) |
| CN(C)C(=O)c1cccc(-c2ccc([C@H]3[C@H](CO)N4C(=O)CN(C(=O)C5CCC5)C[C@@H]34)cc2)c1 | > 10 µM (inactive) |
| O=C(NC1Cc2ccccc2C1)[C@H]1[C@H](CO)[C@H]2Cn3c(cccc3=O)[C@@H]1N2C(=O)CC1CC1 | > 10 µM (inactive) |
| COc1ccc(CN2[C@H](CO)[C@H]3c4ccccc4NC[C@H]32)cc1 | < 10 µM |
| COc1ccc(C#Cc2ccc3c(c2)[C@H]2[C@H](CCN2C(=O)Nc2ccc(C(F)(F)F)cc2)[C@@H](CO)N3C)cc1 | > 10 µM (inactive) |
| COc1ccc2c3c(n(C)c2c1)[C@H](CO)N(C(=O)Nc1ccc(F)cc1)CC31CN(C(=O)Cc2ccncc2)C1 | > 10 µM (inactive) |
| O=C(C[C@@H]1CC[C@H]2[C@@H](COC[C@H](O)CN2CC2CCOCC2)O1)NCC1CCCCC1 | > 10 µM (inactive) |
